Measurements taken from patent US9328083B2, “2-aminated methylene or 2-esterified methylene tanshinone derivatives, and preparation method and application thereof” (HANGZHOU BENSHENG PHARMACEUTICAL CO., LTD., priority 2011, dated 2016).
Converted amounts (≈) assume the structure as drawn.

Columns and labels:
[1] = system: H9 (acute lymphoblastic leukemia, ALL); test: MTT growth inhibition of leukemia cells, 72 h; type: cell-based, human; conditions: Homo sapiens, H9, 72 h; for IC50: read-out: IC50; for IC90: read-out: IC90
From the text: (§1) Leukemia cell lines: leukemia cell lines: K562/adr (drug-resistant, chronic myeloid leukemia, CML), NB4 (acute promyelocytic leukemia, AML), Kasumi-1 (acute myeloid leukemia M2 type, AML-M2), and Jurkat (acute lymphoblastic leukemia, ALL), all of which are donated by Cancer Research Institute of Zhejiang University, China; and H9 (acute lymphoblastic leukemia, ALL), which is purchased from China Center for Type Culture Collection (CCTCC).
(§2) The standard sample of tanshinone I (TA) and the 2-aminated methylene or 2-esterified methylene tanshinone I derivatives of the present invention are sufficiently dissolved with dimethylsulfoxide to produce a stock solution of 10 mg/mL, which is refrigerated at 4° C. and stored in dark, and is diluted with a cell culture medium to the desired concentration prior to experimentation.
(§3) Obtaining 6000 well-growing leukemia cells and inoculating them into wells of a 96-well cell culture plate. The culture medium is the RPMI-1640 cell culture medium containing 10% fetal bovine serum. After adding on the second day the 2-aminated methylene or 2-esterified methylene tanshinone I derivatives of different concentrations and mixing uniformly, placing the plate in a carbon dioxide cell incubator (5% CO2) at 37° C. and incubated for 72 hours. Then the viable cell concentration is determined by MTT method.

[2] = system: Kasumi-1 (acute myeloid leukemia M2 type, AML-M2); test: MTT growth inhibition of leukemia cells, 72 h; type: cell-based, human; conditions: Homo sapiens, Kasumi-1, 72 h; for IC50: read-out: IC50; for IC90: read-out: IC90
From the text: as §1, §2, §3

[3] = system: K562/adr (drug-resistant, chronic myeloid leukemia, CML); test: MTT growth inhibition of leukemia cells, 72 h; type: cell-based, human; conditions: Homo sapiens, K562/Adr; for IC50: read-out: IC50; for IC90: read-out: IC90
From the text: as §1, §2, §3

[4] = system: NB4 (acute promyelocytic leukemia, AML); test: MTT growth inhibition of leukemia cells, 72 h; type: cell-based, human; conditions: Homo sapiens, NB4, 72 h; for IC50: read-out: IC50; for IC90: read-out: IC90
From the text: as §1, §2, §3

[5] = system: Jurkat (acute lymphoblastic leukemia, ALL); test: MTT growth inhibition of leukemia cells, 72 h; type: cell-based, human; conditions: Homo sapiens, 72 h; for IC50: read-out: IC50; for IC90: read-out: IC90
From the text: as §1, §2, §3

[6] = system: PANC-1 (pancreatic cancer); test: MTT growth inhibition of human solid tumor cells, 72 h; type: cell-based; conditions: Homo sapiens, PANC-1, 72 h; for IC50: read-out: IC50; for IC90: read-out: IC90
Procedure: (§4) Hep-2 (laryngeal carcinoma), A549 (human lung cancer), CaES-17 (esophageal cancer cell), PC-3 (prostate cancer), CNE (nasopharyngeal carcinoma cell), and SK-OV-3 (ovarian cancer cell), all of which are purchased from China Center For Type Culture Collection; RKO (human colon adenocarcinoma cell), MGC 803 (human gastric cancer cell), MG63 (osteosarcoma) and U87 MG (malignant glioma cell), all of which are purchased from Fuxiang Bio-tech Co. Ltd., Shanghai, China; PANC-1 (pancreatic cancer), Hep G2 (human liver cancer cell), Becap37 (human breast cancer cell) and Hela (human cervical cancer cell), all of which are donated by Cancer Research Institute of Zhejiang University, China.
as §2
(§5) Obtaining 4000 well-growing human solid tumor cells and inoculating them into wells of a 96-well cell culture plate. The culture medium is DMEM High Glucose cell culture medium containing 10% fetal bovine serum. The plate is placed in a carbon dioxide cell incubator (5% CO2) at 37° C. and incubated for 24 hours. After adding the 2-aminated methylene or 2-esterified methylene tanshinone I derivatives of different concentrations and mixing uniformly, the plate is placed in a carbon dioxide cell incubator (5% CO2) at 37° C. and incubated for 72 hours. Then the viable cell concentration is determined by the MTT method.

PC-3 (prostate cancer) = test: as above; type: cell-based; conditions: Homo sapiens, PC-3, 72 h; for IC50: read-out: IC50; for IC90: read-out: IC90
Procedure: as §4, §2, §5

[7] = system: U87 MG (malignant glioma cell); test: as above; type: cell-based; conditions: Homo sapiens, U-87 MG, U87-MG, 72 h; for IC50: read-out: IC50; for IC90: read-out: IC90
Procedure: as §4, §2, §5

[8] = system: Hela (human cervical cancer cell); test: as above; type: cell-based; conditions: Homo sapiens, HeLa, 72 h; for IC50: read-out: IC50; for IC90: read-out: IC90
Procedure: as §4, §2, §5

[9] = system: Hep-2 (laryngeal carcinoma); test: as above; type: cell-based; conditions: Homo sapiens, HEp-2, 72 h; for IC50: read-out: IC50; for IC90: read-out: IC90
Procedure: as §4, §2, §5

[10] = system: SK-OV-3 (ovarian cancer cell); test: as above; type: cell-based; conditions: Homo sapiens, SK-OV-3, 72 h; for IC50: read-out: IC50; for IC90: read-out: IC90
Procedure: as §4, §2, §5

[11] = system: CNE (nasopharyngeal carcinoma cell); test: as above; type: cell-based; conditions: Homo sapiens; for IC50: read-out: IC50; for IC90: read-out: IC90
Procedure: as §4, §2, §5

[12] = system: MGC 803 (human gastric cancer cell); test: as above; type: cell-based; conditions: Homo sapiens, MGC-803, 72 h; for IC50: read-out: IC50; for IC90: read-out: IC90
Procedure: as §4, §2, §5

A549 (human lung cancer) = test: as above; type: cell-based; conditions: Homo sapiens, A549, 72 h; for IC50: read-out: IC50; for IC90: read-out: IC90
Procedure: as §4, §2, §5

[13] = system: CaES-17 (esophageal cancer cell); test: as above; type: cell-based; conditions: Homo sapiens, CaEs17, CaEs-17, 72 h; for IC50: read-out: IC50; for IC90: read-out: IC90
Procedure: as §4, §2, §5

[14] = system: Hep G2 (human liver cancer cell); test: as above; type: cell-based; conditions: Homo sapiens, HepG2, Hep G2, 72 h; for IC50: read-out: IC50; for IC90: read-out: IC90
Procedure: as §4, §2, §5

MG63 (osteosarcoma) = test: as above; type: cell-based; conditions: Homo sapiens, MG-63, 72 h; for IC50: read-out: IC50; for IC90: read-out: IC90
Procedure: as §4, §2, §5

[15] = system: Becap37 (human breast cancer cell); test: as above; type: cell-based; conditions: Homo sapiens, Becap-37, 72 h; for IC50: read-out: IC50; for IC90: read-out: IC90
Procedure: as §4, §2, §5

[16] = system: RKO (human colon adenocarcinoma cell); test: as above; type: cell-based; conditions: Homo sapiens; for IC50: read-out: IC50; for IC90: read-out: IC90
Procedure: as §4, §2, §5

[17] = system: RPMI8226 (multiple myeloma); test: MTT growth inhibition of multiple myeloma cells, 72 h; type: cell-based, human; conditions: Homo sapiens, RPMI 8226, 72 h; for IC50: read-out: IC50; for IC90: read-out: IC90
Procedure: Myeloma cell lines: RPMI8226 (multiple myeloma), purchased from Fuxiang Bio-tech Co. Ltd., Shanghai, China.
as §2
as §3, with “myeloma” for “leukemia”, “cells as above” for “cells”, “1640” for “RPMI-1640”, “adding” for “adding on the second day”

Row | SMILES | IC50 [1] [µg/mL] | IC90 [1] [µg/mL] | IC50 [2] [µg/mL] | IC90 [2] [µg/mL] | IC50 [3] [µg/mL] | IC90 [3] [µg/mL] | IC50 [4] [µg/mL] | IC90 [4] [µg/mL] | IC50 [5] [µg/mL] | IC90 [5] [µg/mL] | IC50 [6] [µg/mL] | IC90 [6] [µg/mL] | IC50 (PC-3 (prostate cancer)) [µg/mL] | IC90 (PC-3 (prostate cancer)) [µg/mL] | IC50 [7] [µg/mL] | IC90 [7] [µg/mL] | IC50 [8] [µg/mL] | IC90 [8] [µg/mL] | IC50 [9] [µg/mL] | IC90 [9] [µg/mL] | further results
1 | Cc1c(CN(C)CCOC(=O)OC(C)C)oc2c1C(=O)C(=O)c1c-2ccc2c(C)cccc12 [BS-TA-63] | 3.75 (≈ 8.34 µM) | 15.3 (≈ 34.1 µM) | 1.48 (≈ 3.29 µM) | 3.89 (≈ 8.65 µM) | 1.26 (≈ 2.8 µM) | 4.6 (≈ 10.2 µM) | 3.73 (≈ 8.3 µM) | 10.4 (≈ 23.1 µM) | 3 (≈ 6.67 µM) | 7.56 (≈ 16.8 µM) | 4.92 (≈ 10.9 µM) | 20.9 (≈ 46.4 µM) | 5.83 (≈ 13 µM) | 18.9 (≈ 42 µM) | 15.8 (≈ 35.2 µM) | > 16 | 8.77 (≈ 19.5 µM) | > 16 | 3.39 (≈ 7.54 µM) | 22.4 (≈ 49.9 µM) | IC50 [10]: > 16 µg/mL; IC90 [10]: > 16 µg/mL; IC50 [11]: > 16 µg/mL; IC90 [11]: > 16 µg/mL; IC50 [12]: 14.9 µg/mL (≈ 33.1 µM); IC90 [12]: > 16 µg/mL; IC50 (A549 (human lung cancer)): 6.5 µg/mL (≈ 14.5 µM); IC90 (A549 (human lung cancer)): 23.4 µg/mL (≈ 52.1 µM); IC50 [13]: > 16 µg/mL; IC90 [13]: > 16 µg/mL; IC50 [14]: 15.7 µg/mL (≈ 34.8 µM); IC90 [14]: > 16 µg/mL; IC50 (MG63 (osteosarcoma)): 14.1 µg/mL (≈ 31.4 µM); IC90 (MG63 (osteosarcoma)): > 16 µg/mL; IC50 [15]: 16 µg/mL (≈ 35.6 µM); IC90 [15]: > 16 µg/mL; IC50 [16]: 1.86 µg/mL (≈ 4.14 µM); IC90 [16]: 17.6 µg/mL (≈ 39.2 µM); IC50 [17]: 7.76 µg/mL (≈ 17.3 µM); IC90 [17]: 16 µg/mL (≈ 35.6 µM)
2 | CCN(C)Cc1oc2c(c1C)C(=O)C(=O)c1c-2ccc2c(C)cccc12 [BS-TA-B03] | 3.3 (≈ 9.5 µM) | 6.8 (≈ 19.6 µM) | 0.81 (≈ 2.33 µM) | 2 (≈ 5.76 µM) | 1.22 (≈ 3.51 µM) | 2.69 (≈ 7.74 µM) | 0.92 (≈ 2.65 µM) | 3.01 (≈ 8.66 µM) | 2.36 (≈ 6.79 µM) | 6.15 (≈ 17.7 µM) | 3.14 (≈ 9.04 µM) | 16 (≈ 46.1 µM) | 5.39 (≈ 15.5 µM) | 12.3 (≈ 35.5 µM) | 2.36 (≈ 6.79 µM) | 3.85 (≈ 11.1 µM) | 3.99 (≈ 11.5 µM) | 11 (≈ 31.5 µM) | 6.11 (≈ 17.6 µM) | 18.5 (≈ 53.1 µM) | IC50 [10]: 12.8 µg/mL (≈ 36.9 µM); IC90 [10]: 21.7 µg/mL (≈ 62.4 µM); IC50 [11]: 8.8 µg/mL (≈ 25.3 µM); IC90 [11]: 43.6 µg/mL (≈ 125 µM); IC50 [12]: 3.86 µg/mL (≈ 11.1 µM); IC90 [12]: 7.99 µg/mL (≈ 23 µM); IC50 (A549 (human lung cancer)): 0.8 µg/mL (≈ 2.3 µM); IC90 (A549 (human lung cancer)): 4.43 µg/mL (≈ 12.8 µM); IC50 [13]: 5.55 µg/mL (≈ 16 µM); IC90 [13]: 10.3 µg/mL (≈ 29.8 µM); IC50 [14]: 4.69 µg/mL (≈ 13.5 µM); IC90 [14]: 22.1 µg/mL (≈ 63.6 µM); IC50 (MG63 (osteosarcoma)): 4.53 µg/mL (≈ 13 µM); IC90 (MG63 (osteosarcoma)): 13 µg/mL (≈ 37.4 µM); IC50 [15]: 4 µg/mL (≈ 11.5 µM); IC90 [15]: 9.37 µg/mL (≈ 27 µM); IC50 [16]: 0.49 µg/mL (≈ 1.41 µM); IC90 [16]: 14.6 µg/mL (≈ 41.9 µM); IC50 [17]: 2.83 µg/mL (≈ 8.15 µM); IC90 [17]: 5.87 µg/mL (≈ 16.9 µM)
